Measurements published in US20230265524A1, “IMMUNOGENIC RETROELEMENTS AND THEIR USE IN CANCER THERAPY” (UNIVERSITY HEALTH NETWORK, priority 2020, published 2023).

Assays:
ADAR1 = test: qPCR analysis of ADAR1 mRNA level and isoforms; format: cell-based, human; settings: CRC cells transiently transfected, 100 ng/ml
Procedure: C, qPCR analysis of total ADAR1 mRNA level after treatment with 5-AZA-CdR (300 nM, for 5 days) or transfection with 100 ng ml-1 poly(I:C) over a course of 24 days. Cells were washed out at day 5 and seeded in drug-free medium. Data are mean±s.e.m.****P<0.0001, Sidak-corrected two-way ANOVA.
A, ADAR1 isoforms (p110 and p150) relative expression analysed by qPCR. LACZ denotes ADAR1WT; PIC denotes 100 ng/ml poly (I:C) for 5 days; AZA denotes 300 nM 5-AZA-CdR for 5 days). Data are mean±s.e.m. (n=3 from three independent experiments). ***P<0.001, ****P<0.0001, Tukey-corrected two-way ANOVA.
To test this hypothesis, we first determined if ADAR1 depletion affects dsRNA formation by IR-Alus in untreated patient-derived CRCs. We generated ADAR1 knock-down CRCs using two different hairpin RNAs (ADAR1^KDA/B) and confirmed depletion of both the constitutively expressed (p110) and interferon-inducible (p150) ADAR1 isoforms (FIG. 8A). […] To determine if MDA5 ligands also increase upon ADAR1 depletion, we performed the MDA5 protection assay followed by RNA-Seq, as above. […] Again, these immunogenic Alus were primarily IR-Alu pairs unidirectionally transcribed in either the sense (+/+) or antisense (−/−) direction and induced upon ADAR1 depletion (FIG. 9C-J).
Next, we tested whether epigenetic therapy can induce and activate ADAR1 editing activity.

[1] = test system: interferon stimulated genes (ISG15, DDX58 and IRF7); test: interferon response / ISG expression by RNA-seq GSEA and qRT-PCR in patient-derived CRC cells; format: cell-based, human; settings: transfection in wild-type and ADAR1-depleted cells, across time-points
Text: H, Geneset Enrichment Analysis showing an enrichment of the geneset ‘Hallmark_Interferon_Alpha_Response’ in ADAR1^KD 5-AZA-treated cells compared to ADAR1^WT 5-AZA-CdR treated cells.
I, Interferon-responsive geneset enrichment score in mock-treated ADAR1^WT, 5-AZA-CdR-treated ADAR1^WT, mock-treated ADAR1^KD, and 5-AZA-CdR-treated ADAR1^KD conditions. Samples were collected 5, 14, and 24 days post-treatment.
B, Kinetics of interferon stimulated genes (ISG15, DDX58 and IRF7) relative expression in ADAR1^WT (Black) and ADAR1^KD (Gray) patient-derived colorectal cancer cells (CRCs) treated with 5-AZA-CdR analyzed by qRT-PCR. Data are mean±s.e.m. (n=3 from three independent experiments). *P<0.05, **P<0.01, ****P<0.0001, Sidak-corrected two-way ANOVA.
C, Interferon-responsive gene expression in ADAR1^WT mock-treated (MT), 5-AZA-CdR treated, ADAR1^KD NT and ADAR1^KD p(I:C) transfected samples collected 5 days, 14 days and 24 days post-treatment, measured by RNA-seq.
D, Kinetics of interferon stimulated genes (ISG15, DDX58 and IRF7) relative expression in ADAR1^WT (Black) and ADAR1^KD (Gray) patient-derived CRCs transfected with p(I:C), analyzed by qRT-PCR. Data are mean±s.e.m. **P<0.01, ****P<0.0001, Sidak-corrected two-way ANOVA.
F, Interferon stimulated genes (ISG15, DDX58 and IRF7) relative expression in CTRL (LUC) (Black) and ADAR1^p150CE (Gray) patient-derived CRCs treated with 5-AZA-CdR, analyzed by qRT-PCR. Data are mean±s.e.m. **P<0.01, ***P<0.001, Sidak-corrected two-way ANOVA.
G, IFN enrichment score in CTRL(LUC) Mock-treated, 5-AZA-CdR treated, ADAR1-p150 overexpressing NT and ADAR1-p150 overexpressing 5-AZA-CdR treated samples collected 5 days post-treatment and measured by RNA-seq.
Based on these findings, we hypothesized that ADAR1 depletion would synergize with the viral mimicry response induced by DNMTi treatment. To assess how ADAR1 depletion affects 5-AZA-CdR treated samples, we performed RNA-seq analyses in patient-derived CRC cells. […] As a molecular read-out of dsRNA pattern recognition activation, we measured MAVS aggregation in the mitochondrial fraction of cell lysates^34. […] Taken together, our findings establish that ADAR1 acts as a negative feedback loop, restricting the viral mimicry response induced by DNMTi treatment in cancer cells.

Poly(I:C)
interferon-inducible isoform of ADAR1 (p150) expression (ADAR1): acute up-regulation
activation of ISGs [1]: comparable activation of ISGs across time-points
